In the supplement of paper PMC11061612:

Assays:
Experiment in all cases: combination Emax (second highest fraction inhibited in the dose matrix, 72 h); higher = more inhibition; extreme values may be limits of the assay
NB7 (Neuroblastoma) = tested on: NB7 (Neuroblastoma)
Summary of the method: (§1)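 After 24 hours at 37°C and 5% CO2 in 1536-well plates, cells in DMEM/F12 or RPMI plus 10% FBS received two-drug dose matrices for 72 hours. Viability came from CellTiter-Glo 2.0 luminescence and was scaled as inhibition, anchored at 0 by vehicle wells and at 1 by blank wells. Combination Emax is taken as the second-highest inhibition in the matrix, and Bliss excess as the observed combination effect less EA + EB − EA·EB, with EA and EB the single-agent effects.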

[1] = tested on: PFSK-1 (Other Solid Carcinomas)
Summary of the method: as §1

EW-18 (Ewing's Sarcoma) = tested on: EW-18 (Ewing's Sarcoma)
Summary of the method: as §1

[2] = tested on: EMC-BAC-2 (Non-Small Cell Lung Carcinoma)
Summary of the method: as §1

[3] = tested on: DG-75 (Burkitt's Lymphoma)
Summary of the method: as §1

[4] = tested on: NCI-H2405 (Lung Adenocarcinoma)
Summary of the method: as §1

[5] = tested on: VMRC-LCD (Lung Adenocarcinoma)
Summary of the method: as §1

[6] = tested on: ASH-3 (Thyroid Gland Carcinoma)
Summary of the method: as §1

[7] = tested on: HC-1 (Other Blood Carcinomas)
Summary of the method: as §1

[8] = tested on: KYSE-150 (Esophageal Squamous Cell Carcinoma)
Summary of the method: as §1

EW-3 (Ewing's Sarcoma) = tested on: EW-3 (Ewing's Sarcoma)
Summary of the method: as §1

BT-20 (Breast Carcinoma) = tested on: BT-20 (Breast Carcinoma)
Summary of the method: as §1

[9] = tested on: JHH-7 (Hepatocellular Carcinoma)
Summary of the method: as §1

A704 (Kidney Carcinoma) = tested on: A704 (Kidney Carcinoma)
Summary of the method: as §1

[10] = tested on: HSC-2 (Oral Cavity Carcinoma)
Summary of the method: as §1

[11] = tested on: BV-173 (Chronic Myelogenous Leukemia)
Summary of the method: as §1

[12] = tested on: PF-382 (T-Lymphoblastic Leukemia)
Summary of the method: as §1

[13] = tested on: NCI-H322M (Lung Adenocarcinoma)
Summary of the method: as §1

[14] = tested on: NCI-H1573 (Lung Adenocarcinoma)
Summary of the method: as §1

[15] = tested on: SNU-C1 (Colorectal Carcinoma)
Summary of the method: as §1

SMILES	combination Emax (NB7 (Neuroblastoma))	combination Emax [1]	combination Emax (EW-18 (Ewing's Sarcoma))	combination Emax [2]	combination Emax [3]	combination Emax [4]	combination Emax [5]	combination Emax [6]	combination Emax [7]	combination Emax [8]	combination Emax (EW-3 (Ewing's Sarcoma))	combination Emax (BT-20 (Breast Carcinoma))	combination Emax [9]	combination Emax (A704 (Kidney Carcinoma))	combination Emax [10]	combination Emax [11]	combination Emax [12]	combination Emax [13]	combination Emax [14]	combination Emax [15]
CN(CCO)CC[C@H](CSc1ccccc1)Nc1ccc(S(=O)(=O)NC(=O)c2ccc(N3CCC([C@@H](O)c4ccccc4-c4ccc(Cl)cc4)CC3)cc2)cc1S(=O)(=O)C(F)(F)F [AZD4320] + C[C@@H]1COCCN1C2=NC(=NC(=C2)C3(CC3)[S@](=N)(=O)C)C4=C5C=CNC5=NC=C4 [AZD6738] (first compound max 1 µM, 7x7, partner max 10 µM)	0.691	0.781	0.897	0.632	0.768	0.415	0.611	0.662	0.958	0.614	0.971	0.765	0.524	0.809	0.925	0.953	1	0.915	0.634	0.658
COc1nnc2ccc(N3CCC(c4ccc(OCCN5CCN(C)C(=O)[C@H]5C)cc4)CC3)nn12 [AZD5153] + C[C@@H]1COCCN1C2=NC(=NC(=C2)C3(CC3)[S@](=N)(=O)C)C4=C5C=CNC5=NC=C4 [AZD6738] (first compound max 1 µM, 7x7, partner max 10 µM)	0.589	0.648	0.781	0.816	0.909	0.511	0.921	0.852	0.713	0.746	0.851	0.399	0.324	0.681	0.79	0.95	1	0.865	0.709	0.693
CN(CCO)CC[C@H](CSc1ccccc1)Nc1ccc(S(=O)(=O)NC(=O)c2ccc(N3CCC([C@@H](O)c4ccccc4-c4ccc(Cl)cc4)CC3)cc2)cc1S(=O)(=O)C(F)(F)F [AZD4320] + CN(C)CCCOc1ccc(-c2ccc3ncc4c(c3c2)n(C2CCOCC2)c(=O)n4C)cn1 [AZD0156] (first compound max 1 µM, 7x7, partner max 1 µM)	0.108	0.375	0.91	0.185	0.336	0.224	0.0958	0.498	0.424	0.206	0.95	0.411	0.425	0.496	0.269	0.95	0.98	0.172	0.2	0.439
CN(CCO)CC[C@H](CSc1ccccc1)Nc1ccc(S(=O)(=O)NC(=O)c2ccc(N3CCC([C@@H](O)c4ccccc4-c4ccc(Cl)cc4)CC3)cc2)cc1S(=O)(=O)C(F)(F)F [AZD4320] + C1CN(CCC1(C(=O)N[C@@H](CCO)C2=CC=C(C=C2)Cl)N)C3=NC=NC4=C3C=CN4 [Capivasertib] (first compound max 1 µM, 7x7, partner max 3 µM)	0.0214	0.568	0.875	0.301	0.266	0.224	0.0578	0.59	0.616	0.347	0.918	0.84	0.391	0.392	0.362	0.962	0.98	0.0734	0.575	0.775
COc1nnc2ccc(N3CCC(c4ccc(OCCN5CCN(C)C(=O)[C@H]5C)cc4)CC3)nn12 [AZD5153] + CCN(CCO)CCCOc1ccc2c(Nc3cc(CC(=O)Nc4cccc(F)c4)[nH]n3)ncnc2c1 [AZD2811] (first compound max 1 µM, 7x7, partner max 1 µM)	0.441	0.574	0.768	0.738	0.892	0.367	0.816	0.78	0.572	0.688	0.626	0.185	0.361	0.497	0.662	0.936	0.98	0.507	0.412	0.531
